Consider one compound from US20130267485A1, “Pharmaceutical Combination of Resveratrol and Progestin to Treat and/or Prevent Myoma and/or Endometriosis” (LIBBS FARMACEUTICA LTDA., priority 2010, published 2013).

In assay [1] the test system is stromal cells extracted from human endometrium tissue. Briefly: Antiproliferative activity, MTT colorimetric method. The class given is cell-based. As to the method: Negative control: stromal cells of endometrioma incubated with 200 μL of culture medium supplemented with 10% fetal bovine serum and 0.1% DMSO. After calculating the concentrations, the test substances were diluted in 100% DMSO, with stock solution concentrations being of 1 mM to ethinyl estradiol and 10 mM to Dienogest, Resveratrol and Danazol. The use solution was obtained by 1:10 serial dilutions in culture medium supplemented with 10% of fetal bovine serum and 1% of antibiotic/antimycotic. The final concentration of DMSO in the solutions was 0.1%. Endometrium tissues were obtained from 2 voluntary donors by means of videolaparoscopy, by signing the respective terms of consent and ages between 18 and 45 years. A fragment was taken from tissue samples for histological confirmation of endometriosis and the remaining was packaged in sterile flask containing culture medium DMEM/Ham's F12 (Gibco®) with ampicillin and streptomycin (Merck®) antibiotics, and they were taken immediately to the laboratory. […] The resulting suspension was centrifuged and re-suspended in culture medium, and it was then transferred to a 25 cm^2 culture bottle. The purity of cell cultures was tested by immunocytochemistry using rabbit anti-human vimentin monoclonal primary antibody (Spring Bioscience TM) and rabbit anti-IgG secondary polyclonal antibody from goat labeled with Texas Red (Invitrogen®). The cells were maintained and amplified in DMEM/Ham's F12 (Gibco®) 10% FBS medium, with […] of antibiotics ampicillin and streptomycin in culture bottle until reaching the sub-confluence (90% of confluence), and then they were transferred to 96-well plates for conducting the tests for assessing antiproliferative activity. Cells were transferred to 96-well plates to a density of 10,000 cells per well in culture medium with 10% of SBF and incubated during 48 hours. […] Then, MTT tetrazolium salt was added (Invitrogen) at a concentration of 1 mg/mL, according to the incubation periods described in the manufacturer's manual. Cell proliferation was indirectly evaluated using the MTT colorimetric method (Invitrogen) and absorbance measurement at 540 nm in SpectraMax M2 plate reader-Molecular Devices with SoftMax […].2 software. By following this procedure, results of antiproliferative activity. of drugs on cells can be obtained. Data were calculated with the ratio of values obtained from cultures exposed (and in different concentrations, combined or not) and cultures not exposed to drugs. The reference of 100% of cell viability, cells cultured without the presence of drugs, was considered.

For assay [2], the system named is patients with intramural myoma, adenomyosis and endometriosis. Briefly: Uterus volume before and after treatment, 30 patients (plus comparative resveratrol-only patients). The class given is in vivo, human. How it is done:
An experiment was carried out with 30 patients treated with combinations of drospirenone, ethinyl estradiol and resveratrol, as well as with combinations of gestinol and resveratrol, evaluating the volume of the uterus before and after the treatment. In the comparative studies with three patients A, B and C, showing intramural myoma treated only with resveratrol, there was observed a 32% increase for patient A, treated during 12 months; 27% increase for patient B, treated during 3 months; and 22% increase for patient C, treated during 1 month.

In the case of `Oc1ccc(/C=C/c2cc(O)cc(O)c2)cc1` [Resveratrol, trans-3,5,4″-trihidroxystilbene], the Proliferation in assay [1] (resveratrol alone 1.980 ng/mL, 100% = cells without drugs) was 94.8%; in assay [1] (resveratrol alone 19.800 ng/mL, 100% = cells without drugs) it was 90.6%; in assay [1] (resveratrol alone 197.970 ng/mL (concentration used in the combination)), 94.7%; in assay [1] (resveratrol alone 1979.130 ng/mL), 93.3%; in assay [1] (resveratrol alone 19797.13 ng/mL), 91.1%. Further, the “increase (intramural myoma, treated only with resveratrol)” value in assay [2] (patient A, treated during 12 months) turned out to be 32%; in assay [2] (patient B, treated during 3 months), 27%; in assay [2] (patient C, treated during 1 month) it was 22%.
